These results are taken from patent EP1482971B1, “STRATEGY FOR RETROVIRAL IMMUNOTHERAPY” (priority 2002, dated 2003).

Molecules are shown by their SMILES. Read-outs that look alike come from different tables or passages of the source.

Assay [1] has as its system CD4^+ T cells and CD25^+CD4^+ T cells. The assay is described as follows: Direct FACS analysis of spleen cells following Vb therapy on day 14 post infection. The assay is classed as in vivo, mice. Particulars: spleens collected 48 hours post Vb treatment. How it is done: FACS analysis of CD4^+ and CD8^+ T cells prepared from spleens of mice treated with Vb on Day 14 pi was performed (Figure 6). CD25^+CD4^+ T cells were also examined as they have recently been identified as having an important regulatory function in mouse models of autoimmune disease and tumour immunology (Takahashi et al., 1998; Shimizu et al., 1999). It is possible that these cells may play a role in the regulation of the immune response to MAIDS. Day 14 pi and uninfected control mice were given Vb therapy and the spleens collected at 48 hours post Vb treatment.
Background: In flow cytometry, cells or beads pass a laser one at a time.

Assay [2] concerns MAIDS virus. In words: Adoptive transfer of CD4+CD25+/- cells into MAIDS infected day 14 Vinblastine treated mice. The assay is classed as in vivo. Particulars: MAIDS-infected day 14 Vb-treated recipients given CD4+CD25+ or CD4+CD25- cells from uninfected donors. From the text: An adoptive transfer experiment was designed to directly test the hypothesis that CD4+CD25+ T cells are functioning as the regulator cells in the murine AIDS model. The same approach used to determine that the regulator cells are CD4+ T cells was used to test whether the CD4+CD25+ subset are the target of day 14 Vinblastine treatment. […] 2.0x10^6 cells of the regulator CD4+CD25+ phenotype were purified from single cell suspensions of donor spleens using MACS beads (Miltenyi Biotec) using two positive selection steps. The cells were then tested for purity by flow cytometry (both CD4+CD25+ and CD4+CD25- fractions were of > 90 % purity) and viability using trypan blue exclusion prior to transfer into uninfected (control) and MAIDS infected day 14 Vinblastine treated mice. CD4+CD25- cells were also transferred to allow that the regulator cells may not present in the CD25+ fraction and also to allow for the possibility that these putative regulator cells may lose CD25 expression as they expand and become activated as was reported by Gavin et al., 2002.
Mice receiving adoptive transfer of cells were either uninfected (control) or MAIDS infected and day 14 Vinblastine treated to examine whether the transfer of cells would result in disease progression. […] Disease progression was assessed by spleen weight at 10 weeks post MAIDS infection. […]

In assay [3] the test system is LP-BM5 murine leukemia virus (MuLV). The assay is described as follows: MAIDS development after a single dose of vinblastine at different times post infection (spleen weight, histology, FACS analysis). The format is in vivo, C57BL/6 mice. From the text: A murine AIDS (MAIDS) pathology induced by LP-BM5 murine leukemia virus (MuLV) in susceptible mice is an effective tool to investigate mechanisms of retrovirus-induced immunodeficiency. […] Infection of a susceptible strain such as C57BL/6 mice with LP-BM5 leads to chronic splenomegaly, hypergammaglobulinaemia and development of immunodeficiency in both T and B cells. In vitro, there is a progressive impairment in the responsiveness of T-cells and B-cells to mitogenic or specific antigenic stimuli. In vivo, infected mice become increasingly susceptible to challenge with a variety of opportunistic organisms and can develop B-cell lymphoma. Deaths are first observed at 8-10 weeks post-infection (pi), and all mice die within 24 weeks (Figure 1). These alterations in immune function reflect complex changes in the phenotype and function of all components of the immune network.
The treatment with a single dose of the anti-mitotic agent vinblastine (Vb) at different times pi is able to prevent the development/progression of MAIDS. […] Clearly, the Vb treatment is remarkably therapeutic when administered at 6 hr or 14 days pi with 100% (10/10) and 74% (20/27) of mice, respectively, showing no signs of MAIDS development at 10 weeks pi (as determined by spleen weight, histology and FACS analysis). […] Additional experiments have provided results of 100% of mice having no signs of MAIDS development at least 12 months after Vb treatment 14 days pi (data not shown). Although not as pronounced as the protection seen after day 14 treatment, moderate protection from MAIDS development was still observed. […] The total protection from MAIDS development seen in mice given Vb at 6 hrs pi is not unexpected as the virus replicates in actively replicating cells which are the target of the anti-mitotic drug thus any cells infected with the virus are killed by the Vb preventing the virus from rapidly establishing an infection in the host. However, the highly protective effect observed after a single treatment with Vb at 14 days pi is quite remarkable as, by this stage, the viral infection is well established and the early disease processes are well underway. We propose that this highly therapeutic effect is due to the Vb targeting a particular subset of immune regulator cells during their expansion phase and thereby altering the immune response to the viral infection. […] This leads to long term disease free survival for many months post-infection and treatment.
Spleens from the Day 14 pi Vb treated mice as well as infected and uninfected control mice were weighed and examined histologically. The splenic architecture of all MAIDS infected mice was profoundly disorganised as previously reported (Hartley et al., 1989).

A further assay concerns murine T cell lymphoma. To be noted: cited from earlier work.
For assay [4], the system named is MAIDS virus. The assay is described as follows: Spleen cell transfer into Vb-treated MAIDS infected mice. The format is in vivo. An excerpt:
The experiments illustrated in Figure 7 were designed to determine if a single dose of Vb, administered at 14 days pi, is eliminating a population of expanding CD4^+ regulator T cells and thereby releasing effector cells from down-regulation and clearing the host of the MAIDS virus.
Mice were infected with MAIDS, received day 14 pi Vb treatment and then received an adoptive transfer of ∼10^7 spleen cells from donor mice prepared as outlined in Figure 7. For each experiment [designated (I), (II) and (III)] groups consisted of 7 recipient mice and 9 donor mice. Mice in Group I received whole spleens from infected mice that had not received any Vb treatment. Mice in Group II received whole spleen cell preparations, from infected mice, that had been depleted of CD4^+ cells using a FACS cell sorter after staining with fluorochrome-labeled anti-CD4 monoclonal antibody. […] Mice in Group III received whole spleens from infected donor mice that also received Vb treatment on day 14 pi.

The subject of assay [5] is MAIDS virus. The assay is described as follows: Rechallenge with MAIDS virus following protective vinblastine therapy. The format is in vivo, mice. To be noted: Vb at day 14 pi, rechallenged at 3 or 8 weeks post Vb treatment; assessed at 20 weeks. From the text: To determine if mice protected from MAIDS by the day 14 pi Vb treatment develop an immune response which would then protect them from a subsequent rechallenge with the MAIDS virus groups of mice, given the Vb therapy at day 14 pi, were rechallenged with the MAIDS virus at 3 or 8 weeks post Vb treatment. […] This is not an unexpected result as the dominant immunosuppression by the regulator population of cells would have been restored as a consequence of the immune effector response to the second (untreated) infection.

In the case of `CC[C@]1(O)C[C@@H]2CN(CCc3c([nH]c4ccccc34)[C@@](C(=O)OC)(c3cc4c(cc3OC)N(C)[C@H]3[C@@](O)(C(=O)OC)[C@H](OC(C)=O)[C@]5(CC)C=CCN6CC[C@]43[C@@H]65)C2)C1` [Vb, vinblastine], the “effect on spleen cell subsets” value in assay [1] (Vb at day 14 pi and in uninfected controls) was “all cell subsets are reduced”. Besides, the “cell subsets preferentially targeted in MAIDS infected mice (uninfected to infected ratios)” value in assay [1] (Vb at day 14 pi) is “CD4^+ T cells and CD25^+CD4^+ T cells that are preferentially targeted”. Also, in the assay with MAIDS virus [2], the “disease progression (spleen weight at 10 weeks post MAIDS infection) after adoptive cell transfer” value is listed as “disease progression was readily apparent”. In addition, the “mice protected from any splenomegaly at 20 weeks pi” value in assay [3] (Vb at day 14 pi, 4/5 mice) is given as 80%. Moreover, the “mice having no signs of MAIDS development at least 12 months after Vb treatment” value in assay [3] (Vb treatment 14 days pi, additional experiments, data not shown) worked out at 100%. In addition, in assay [3] (day 14 pi Vb treated mice at 10 weeks pi, preliminary, data not shown), the “cellular proportions (CD4^+, CD8^+ and B cells) and distributions of spleen cells by FACS analysis” value is “like those observed in normal uninfected mice”. Further, the “splenic architecture (spleen histology)” value in assay [3] (day 14 pi Vb treated mice with normal spleen weights (below 0.25g), 10 weeks pi) is “indistinguishable from that of uninfected control mice”. The “mice showing no signs of MAIDS development at 10 weeks pi” value in assay [3] (single 6mg/kg i.p. dose given at 6 hr pi, 10/10 mice, by spleen weight, histology and FACS analysis) turned out to be 100%; in assay [3] (single 6mg/kg i.p. dose given at 14 days pi, 20/27 mice), 74%. Also, in assay [3] (single 6mg/kg i.p. dose given at 6 days pi, 6/13 mice), the “mice with protective effect (no signs of MAIDS development at 10 weeks pi)” value was found to be 46%. Also, the “protection against MAIDS development” value in assay [3] (single 6mg/kg i.p. dose given at day 2 pi) and in assay [3] (single 6mg/kg i.p. dose given at day 7 pi) was “no protection against MAIDS development” each time. Besides, the effect on tumour entry is on record as “enhancement” with murine T cell lymphoma (single dose at day 10 following tumour inoculation); “regression” in the assay on murine T cell lymphoma (single dose at days 4, 6, 13 and 15 following tumour inoculation). Further, the “protective effect of Vb against MAIDS development after spleen cell transfer” value with MAIDS virus [4] (Group I: day 14 pi Vb, then ~10^7 whole spleen cells from MAIDS infected donors without Vb) is listed as “completely prevented Vb from protecting mice from MAIDS development”; with MAIDS virus [4] (Group II: donor spleen cells depleted of CD4^+ cells by FACS sorting before transfer), “the protective effect of Vb was not overcome”; in the assay on MAIDS virus [4] (Group III: spleen cells from MAIDS infected donors also given day 14 Vb), “fully protected from MAIDS development”. For the same compound, the “protection from viral rechallenge” value in the assay with MAIDS virus [5] is reported as “not protected from viral rechallenge”.
